Laboratory results taken from ChEMBL document CHEMBL6096690, “Synthesis and Biological Evaluation of Peripheral HTR2A Antagonists for Colorectal Cancer” (J Med Chem, 2025).
pIC50: −log10 of the molar value.

What was measured:
[1] = target: hERG (KCNH2) (Homo sapiens, UniProt Q12809); assay: Inhibition of hERG at 10 uM relative to control; format: toxicity
[2] = target: 5-hydroxytryptamine receptor 2A (Homo sapiens, UniProt P28223); assay: Antagonist activity at 5HTR2A (unknown origin) assessed as inhibition of 5-HTR2A
5-hydroxytryptamine receptor 2A, sequence (P28223 whole entry): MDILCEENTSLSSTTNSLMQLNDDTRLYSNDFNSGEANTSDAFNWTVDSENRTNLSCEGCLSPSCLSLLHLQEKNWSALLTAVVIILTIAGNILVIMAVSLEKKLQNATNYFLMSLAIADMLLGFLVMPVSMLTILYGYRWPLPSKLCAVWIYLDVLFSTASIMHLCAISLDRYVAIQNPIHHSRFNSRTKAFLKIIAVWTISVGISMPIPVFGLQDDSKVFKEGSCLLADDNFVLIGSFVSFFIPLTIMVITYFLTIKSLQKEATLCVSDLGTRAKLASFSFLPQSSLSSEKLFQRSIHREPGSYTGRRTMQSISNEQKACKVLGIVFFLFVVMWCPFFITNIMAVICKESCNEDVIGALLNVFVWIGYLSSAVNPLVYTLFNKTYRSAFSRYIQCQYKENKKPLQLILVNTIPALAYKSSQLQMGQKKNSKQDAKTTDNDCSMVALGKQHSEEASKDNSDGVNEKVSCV

hERG (KCNH2), sequence (Q12809 whole entry): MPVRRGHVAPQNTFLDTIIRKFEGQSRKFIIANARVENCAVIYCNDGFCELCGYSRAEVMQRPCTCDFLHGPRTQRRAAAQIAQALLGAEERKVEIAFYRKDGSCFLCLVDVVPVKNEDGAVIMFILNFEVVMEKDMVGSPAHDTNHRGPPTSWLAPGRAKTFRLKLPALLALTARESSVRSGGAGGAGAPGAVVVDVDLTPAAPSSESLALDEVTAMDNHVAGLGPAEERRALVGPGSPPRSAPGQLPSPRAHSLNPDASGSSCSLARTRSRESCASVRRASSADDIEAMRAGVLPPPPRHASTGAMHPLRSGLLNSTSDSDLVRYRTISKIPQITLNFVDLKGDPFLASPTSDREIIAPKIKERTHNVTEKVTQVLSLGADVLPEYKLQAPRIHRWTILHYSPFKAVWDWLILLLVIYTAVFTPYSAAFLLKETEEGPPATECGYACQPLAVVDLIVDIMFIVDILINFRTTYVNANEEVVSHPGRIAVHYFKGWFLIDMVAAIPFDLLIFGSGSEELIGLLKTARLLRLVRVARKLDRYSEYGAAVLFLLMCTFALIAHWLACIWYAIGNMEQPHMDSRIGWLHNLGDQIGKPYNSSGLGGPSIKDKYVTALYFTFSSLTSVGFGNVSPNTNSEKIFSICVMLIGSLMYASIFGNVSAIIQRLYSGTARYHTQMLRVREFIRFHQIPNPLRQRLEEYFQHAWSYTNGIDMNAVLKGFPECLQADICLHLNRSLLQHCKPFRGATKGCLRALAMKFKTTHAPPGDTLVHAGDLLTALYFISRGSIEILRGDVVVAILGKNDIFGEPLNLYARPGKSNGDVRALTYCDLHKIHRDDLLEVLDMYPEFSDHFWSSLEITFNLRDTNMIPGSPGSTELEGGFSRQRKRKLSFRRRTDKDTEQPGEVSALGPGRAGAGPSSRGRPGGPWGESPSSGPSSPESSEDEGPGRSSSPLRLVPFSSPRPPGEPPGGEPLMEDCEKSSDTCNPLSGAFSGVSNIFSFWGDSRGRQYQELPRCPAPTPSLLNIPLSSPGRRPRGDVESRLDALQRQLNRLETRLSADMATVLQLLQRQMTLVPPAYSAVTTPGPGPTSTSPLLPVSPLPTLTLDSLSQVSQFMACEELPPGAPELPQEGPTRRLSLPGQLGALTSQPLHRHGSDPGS

Row | Structure (SMILES) | inhibition at 10 µM [1] | pIC50 [2]
1 | O=C(NCc1ccc(OCC(O)CN2CCN(c3noc4cc(F)ccc34)CC2)cc1)N(Cc1cc(F)c(F)cc1F)C1CCNCC1 (centres undefined) | 72.9% | 7.30
2 | O=C(NCc1ccc(OCC(O)CN2CCN(c3noc4cc(F)ccc34)CC2)cc1)N(Cc1c(F)cc(F)cc1F)C1CCNCC1 (centres undefined) | 83.6% | 7.44
